What follows are compounds tested against Terminally biotinylated beta-amyloid (Aβ42) (Homo sapiens, UniProt P05067) (assay: Aβ42 biotinylated (biotin-AB) oligomerization assay, NeutrAvidin capture ELISA). Settings: approximate value; 1 hr oligomerization at room temperature; read-out: IC50 Aβ 42-bio.
Assay type: biochemical
Procedure: Aβ42 Biotinylated Assay Terminally biotinylated beta-amyloid (biotin-AB) was dissolved in HFIP at the concentration of 1 mg/ml and aliquoted to 50 μl/tube in 0.65 ml colored microfuge tubes (Fisher 02-681-248). The aliquots were diluted immediately by adding 450 μl of HFIP to 0.1 mg/ml. Approximately 46 ul (containing approximately 4.6 ug of biotin-AB) were taken from a tube, 100 ul of HFIP added, vortexed, and dried to a thin film under an N2 stream. 100 μl of trifluoroacetic acid (TFA) was added and vortexed. After 10 minute incubation at room temperature in a hood, resulting in disaggregation of seeds, the sample was vortexed again and dried again to a thin film under an N2 stream. 100 μl of HFIP was added, mixed, and the biotin-AB sample was dried for a third time under an N2 stream to remove residual TFA. The treated biotin-AB was dissolved in DMSO to a final peptide concentration of […] (SOX). An ELISA “capture” plate (Costar 9018) was coated with 50 μl of 1 μg/ml NeutrAvidin™ (NA) in 10 mM sodium phosphate buffer, pH 7.5. (NeutrAvidin can be prepared as 1 mg/ml (1000×) in milliQ water/10% glycerol and stored at −80° C. before use.) The plate was sealed plate with adhesive film and stored at 4° C. overnight, then blocked for 2 hours (unsealed) at room temperature with 200 μl/well OFB+0.1% v/v Tween 20. The “capture” plate was allowed to come to room temperature. Several dilutions of test compound were prepared with 100% DMSO, according to the desired concentration to be tested. 2.5 μl of diluted test compound was pipetted into the bottom of each well of a 96-well “dilution” polypropylene plate (Costar 3365), to which was added 250 ul of Oligomer Formation Buffer (OFB: 20 mM sodium phosphate, pH 7.5-150 mM NaCl). To begin oligomerization, 2 μl/well of the biotin-AB was added to the bottom of each well of a 96-well “reaction” polypropylene plate (Costar 3365) and 100 ul of each well of the “dilution” plate was transferred to the “reaction” plate (final concentration of DMSO being up to 1%). The reaction plate was sealed and incubated for 1 hr at room temperature without shaking. The reaction was then stopped by the addition of 50 ul of 0.3% Tween 20 in water. The “capture” plate blocking solution was removed, and 50 ul of each well of the “reaction” plate was transferred to each well of the “capture” plate. The “capture” plate was sealed and incubated for 2 hours at room temperature with shaking at 150 rpm. The “capture” plate was then washed on a plate washer (3×) with 200 ul/well TBST (20 mM Tris-HCL, pH 7.5/150 mM NaCl/0.1% Tween 20). 50 ul of Streptavidin-horseradish […] (1:20,000 dilution) in OFB+0.1% Tween 20 was added to each well, the “capture” plate was sealed and incubated for 1 hr with shaking at 150 rpm. As before, the plate was washed, then 100 ul of TMB/H2O2 substrate solution was added to each well. After 5-10 minutes, 100 ul of 1% v/v sulfuric acid was added and the absorbance of each well was read at 450 nm using a standard plate reader. Data is summarized in the table below; numbers given in parenthesis for the Aβ 40 Thioflavin T assays are the values in that particular experiment for compound ID 1027, given as the first entry in this table for structural comparison. “IC50 Aβ42-bio” column refers to the approximate value of the Aβ42 biotinylated assay IC50 in micromoles/L.

Chain of Terminally biotinylated beta-amyloid (Aβ42) (P05067 672-713, species assumed): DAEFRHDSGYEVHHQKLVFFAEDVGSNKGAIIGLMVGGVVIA

IC50 [µM] | SMILES
17.5 | OC(c1ncoc1-c1cc(N2CC(CN3CCOCC3)C2)c2nonc2c1)C(F)(F)F (centres unmarked) [compound 1667]
> 20 | OCc1nc(-c2cc(N3CC(CN4CCOCC4)C3)c3nonc3c2)cs1 [compound 1566]
16.5 | N#Cc1ccc(-c2cc(N3CC(CN4CCOCC4)C3)c3nonc3c2)cc1 [compound 1574, 4-(7-(3-(morpholinomethyl)azetidin-1-yl)benzo[c][1,2,5]oxadiazol-5-yl)benzonitrile]
6.6 | COCCN1CCCCC1c1cc(N2CC(CN3CCCC3)C2)c2nonc2c1 (centres unmarked) [compound 1556]
33.1 | CC(C)(O)c1nc(-c2cc(N3CC(CN4CCOCC4)C3)c3nonc3c2)no1 [compound 1628]
2.4 | NC(=O)c1cccc(-c2cc(N3CC(CN4CCCC4)C3)c3nonc3c2)c1 [compound 1609, 3-(7-(3-(pyrrolidin-1-ylmethyl)azetidin-1-yl)benzo[c][1,2,5]oxadiazol-5-yl)benzamide]
10.3 | OC(c1ccncc1-c1cc(N2CC(CN3CCOCC3)C2)c2nonc2c1)C(F)(F)F (centres unmarked) [compound 1636, 2,2,2-trifluoro-1-(3-(7-(3-(morpholinomethyl)azetidin-1-yl)benzo[c][1,2,5]oxadiazol-5-yl)pyridin-4-yl) ethan-1-ol]
> 20 | CN(C)C(=O)c1ccccc1-c1cc(N2CC(CN3CCOCC3)C2)c2nonc2c1 [compound 1615]
11.3 | OC(c1cccc(-c2cc(N3CC(CN4CCOCC4)C3)c3nonc3c2)n1)C(F)(F)F (centres unmarked) [compound 1619, 2,2,2-trifluoro-1-(6-(7-(3-(morpholinomethyl)azetidin-1-yl)benzo[c][1,2,5]oxadiazol-5-yl)pyridin-2-yl)ethan-1-ol]
5.5 | OC(c1cc(-c2cc(N3CC(CN4CCOCC4)C3)c3nonc3c2)cs1)C(F)(F)F (centres unmarked) [compound 1568, 2,2,2-trifluoro-1-(4-(7-(3-(morpholinomethyl)azetidin-1-yl)benzo[c][1,2,5]oxadiazol-5-yl)thiophen-2-yl) ethan-1-ol]
6 | OC(c1cccnc1-c1cc(N2CC(CN3CCCC3)C2)c2nonc2c1)C(F)(F)F (centres unmarked) [compound 1564, 2,2,2-trifluoro-1-(2-(7-(3-(pyrrolidin-1-ylmethyl)azetidin-1-yl)benzo[c][1,2,5]oxadiazol-5-yl)pyridin-3-yl) ethan-1-ol]
12.9 | COc1ccc(-c2cc(N3CC(CN4CCOCC4)C3)c3nonc3c2)cc1OC [compound 1573, 6-(3,4-dimethoxyphenyl)-4-(3-(morpholinomethyl)azetidin-1-yl) benzo[c][1,2,5]oxadiazole]
6.9 | c1nc(-c2cc(N3CC(CN4CCCC4)C3)c3nonc3c2)cs1 [compound 1561]
2.9 | COc1ccc(-c2cc(N3CC(CN4CCOCC4)C3)c3nonc3c2)cc1Cl [compound 1578, 6-(3-chloro-4-methoxyphenyl)-4-(3-(morpholinomethyl)azetidin-1-yl) benzo[c][1,2,5]oxadiazole]
46 | NC(=O)c1cccc(-c2cc(N3CC(CN4CCOCC4)C3)c3nonc3c2)c1 [compound 1576, 3-(7-(3-(morpholinomethyl)zetidin-1-yl)benzo[c][1,2,5]oxadiazol-5-yl) benzamide]
9.9 | OCc1cccc(-c2cc(N3CC(CN4CCOCC4)C3)c3nonc3c2)c1 [compound 1598]
14.6 | CC(C)(O)c1cccc(-c2cc(N3CC(CN4CCOCC4)C3)c3nonc3c2)c1 [compound 1617]
9.7 | OC1(c2ccc(-c3cc(N4CCC(CN5CCOCC5)CC4)c4nonc4c3)cc2)COC1 [compound 1736]
15.1 | OCc1ccc(-c2cc(N3CC(CN4CCOCC4)C3)c3nonc3c2)cc1 [compound 1592]

IC50 [µM] | SMILES
> 20 | CC(C)(O)C1CC1c1cc(N2CC(CN3CCOCC3)C2)c2nonc2c1 (centres unmarked) [compound 1666, 2-(2-(7-(3-(morpholinomethyl)azetidin-1-yl)benzo[c][1,2,5]oxadiazol-5-yl)cyclopropyl)propan-2-ol]
> 20 | CSc1cc(N2CC(CN3CCOCC3)C2)c2nonc2c1 [compound 1612, 6-(methylthio)-4-(3-(morpholinomethyl)azetidin-1-yl) benzo[c][1,2,5]oxadiazole]
10.9 | OC(c1csc(-c2cc(N3CC(CN4CCOCC4)C3)c3nonc3c2)n1)C(F)(F)F (centres unmarked) [compound 1626]
18.7 | CN1CCCCC1c1cc(N2CC(CN3CCCC3)C2)c2nonc2c1 (centres unmarked) [compound 1557]
5.8 | OC(c1ccc(-c2cc(N3CC(CN4CCOCC4)C3)c3nonc3c2)nc1)C(F)(F)F (centres unmarked) [compound 1622, 2,2,2-trifluoro-1-(6-(7-(3-(morpholinomethyl)azetidin-1-yl)benzo[c][1,2,5]oxadiazol-5-yl)pyridin-3-yl)ethan-1-ol]
5.6 | OC1(c2cc(N3CC(CN4CCOCC4)C3)c3nonc3c2)CC(OCc2ccccc2)C1 (centres unmarked) [compound 1692, 3-(benzyloxy)-1-(7-(3-(morpholinomethyl)azetidin-1-yl)benzo[c][1,2,5]oxadiazol-5-yl) cyclobutan-1-ol]
8.3 | CS(=O)(=O)N1CCCCC1c1cc(N2CC(CN3CCCC3)C2)c2nonc2c1 (centres unmarked) [compound 1554]
30.1 | Cn1ncc(C(O)C(F)(F)F)c1-c1cc(N2CC(CN3CCOCC3)C2)c2nonc2c1 (centres unmarked) [compound 1651]
> 20 | COc1cc(N2CC(CN3CCOCC3)C2)c2nonc2c1 [compound 1611, 6-methoxy-4-(3-(morpholinomethyl)azetidin-1-yl)benzo[c][1,2,5]oxadiazole]
7.6 | Cc1ccc(C)c(-c2cc(N3CC(CN4CCCC4)C3)c3nonc3c2)c1 [compound 1559]
5.3 | CC(=O)N(C1CC1)C(C)c1cc(N2CC(CN3CCCC3)C2)c2nonc2c1 (centres unmarked) [compound 1550]
> 20 | OC1(c2ccccc2-c2cc(N3CC(CN4CCOCC4)C3)c3nonc3c2)COC1 [compound 1663]
12.1 | OC(CCc1cc(N2CC(CN3CCCC3)C2)c2nonc2c1)C(F)(F)F (centres unmarked) [compound 1553]
> 20 | COc1cc(N2CC(CN3CCOCC3)C2)c2nonc2c1C [compound 1613, 5-methoxy-4-methyl-7-(3-(morpholinomethyl)azetidin-1-yl)benzo[c][1,2,5]oxadiazole]
26.1 | OC(c1ncc(-c2cc(N3CC(CN4CCOCC4)C3)c3nonc3c2)o1)C(F)(F)F (centres unmarked) [compound 1677]
> 20 | OCc1cnc(-c2cc(N3CC(CN4CCOCC4)C3)c3nonc3c2)o1 [compound 1607, (2-(7-(3-(morpholinomethyl)azetidin-1-yl)benzo[c][1,2,5]oxadiazol-5-yl)oxazol-5-yl)methanol]
> 20 | N#Cc1cc(N2CC(CN3CCOCC3)C2)c2nonc2c1 [compound 1570, 7-(3-(morpholinomethyl)azetidin-1-yl) benzo[c][1,2,5]oxadiazole-5-carbonitrile]
7 | COc1cc(-c2cc(N3CC(CN4CCOCC4)C3)c3nonc3c2)ccc1F [compound 1584, 6-(4-fluoro-3-methoxyphenyl)-4-(3-(morpholinomethyl)azetidin-1-yl) benzo[c][1,2,5]oxadiazole]
30.2 | Fc1cc(F)cc(-c2cc(N3CC(CN4CCOCC4)C3)c3nonc3c2)c1 [compound 1588, 6-(3,5-difluorophenyl)-4-(3-(morpholinomethyl)azetidin-1-yl) benzo[c][1,2,5]oxadiazole]
